Three compounds from ChEMBL document CHEMBL1201862, “PubChem BioAssay data set” (2004) can be followed below.

The nature of test [1]: viability of HCT116 lacking mutant beta-catenin – cell-based, human colon tumor, dose response (AID 1045).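 Also: HCT116 colon tumor cells with beta catenin knocked out; cells exposed to compound for 60 hours.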 In kind it is functional.
Test [2] in a line: cAMP pathway inhibition in counterscreen cell line – TR-FRET cAMP detection, counter-screen for MC4R biased antagonist project, dose response (AID 602305).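 Also: U2OS cells stimulated with forskolin near its EC80 as the cAMP inducer; potency is for inhibition of forskolin-stimulated cAMP signaling.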 The test is classed as functional, cell-based. For orientation: The purpose of a counterscreen is to sort out artefacts and off-target activity.
In a further test the test system is HEK293. The experiment in a line: cells. To be noted: Homo sapiens. In kind it is functional, cell-based.
Test [3] has as its target T1, Oxysterols receptor LXR-beta (Homo sapiens, UniProt P55055).
T1 sequence (P55055 whole entry): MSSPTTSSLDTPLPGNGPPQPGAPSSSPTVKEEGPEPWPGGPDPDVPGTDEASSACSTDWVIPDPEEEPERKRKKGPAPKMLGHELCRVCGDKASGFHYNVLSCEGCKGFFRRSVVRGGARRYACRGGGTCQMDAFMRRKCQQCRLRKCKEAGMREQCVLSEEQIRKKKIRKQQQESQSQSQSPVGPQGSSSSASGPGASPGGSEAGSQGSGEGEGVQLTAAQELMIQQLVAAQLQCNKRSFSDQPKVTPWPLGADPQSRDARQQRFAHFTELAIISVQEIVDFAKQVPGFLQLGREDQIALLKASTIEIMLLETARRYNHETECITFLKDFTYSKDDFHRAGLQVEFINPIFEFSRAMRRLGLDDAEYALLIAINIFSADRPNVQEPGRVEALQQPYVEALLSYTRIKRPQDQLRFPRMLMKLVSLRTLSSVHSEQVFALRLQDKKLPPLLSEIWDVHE
The experiment in a line: LXR agonists, Gal4 luciferase reporter, dose response, counter-screen for ssDAF-12 agonist project, cell-based, luminescence, HEK293, S. stercoralis campaign (AID 720737). The settings on record: read-out: IC50 (the source's name). In kind it is functional.

The target in test [4] is T2, Nuclear receptor subfamily 0 group B member 1 (Homo sapiens, UniProt P51843).
T2 sequence (P51843 whole entry): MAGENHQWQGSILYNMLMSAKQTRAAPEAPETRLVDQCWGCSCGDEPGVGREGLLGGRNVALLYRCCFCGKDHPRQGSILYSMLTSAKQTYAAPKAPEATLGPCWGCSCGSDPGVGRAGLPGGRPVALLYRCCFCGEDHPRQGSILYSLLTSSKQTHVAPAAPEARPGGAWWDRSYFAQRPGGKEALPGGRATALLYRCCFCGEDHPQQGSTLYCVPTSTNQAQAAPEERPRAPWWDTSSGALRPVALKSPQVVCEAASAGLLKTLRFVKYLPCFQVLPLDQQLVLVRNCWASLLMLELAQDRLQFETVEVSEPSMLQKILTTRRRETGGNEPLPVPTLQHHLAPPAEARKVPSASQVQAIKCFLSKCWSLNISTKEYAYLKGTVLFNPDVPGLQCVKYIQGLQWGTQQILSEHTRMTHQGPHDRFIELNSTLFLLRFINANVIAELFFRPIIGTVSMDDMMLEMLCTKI
The experiment in a line: Luminescence-based cell-based high throughput dose response assay for inhibitors of the orphan nuclear receptor subfamily 0, group B, member 1 (DAX1; NR0B1). [Related pubchem assays (depositor defined):AID504766, AID504790]. In kind it is functional.

For test [5], the target named is T1, Oxysterols receptor LXR-beta. In kind it is functional, cell-based.
Test [6] addresses Cystic fibrosis transmembrane conductance regulator/Golgi-associated PDZ and coiled-coil motif-containing protein (Homo sapiens, UniProt P13569+Q9HD26). Kind of test: potency against CAL PDZ-peptide interaction – biochemical, fluorescence polarization, Cerulean-tagged CAL PDZ, cherry-picks, dose response (AID 504773). (In general: In fluorescence polarisation assays a small probe gives low polarisation when free and higher when bound to something large.)

In a further test the test system is Vero. The experiment in a line: viability of Vero cells under compound – cytotoxicity control for flavivirus capping enzyme inhibitors (AID 588742). In kind it is functional. The settings on record: Chlorocebus sabaeus.
Test [7] concerns the target Glucose-6-phosphate 1-dehydrogenase (Homo sapiens, UniProt P11413). The experiment in a line: inhibition of Homo sapiens G6PD, dose series – biochemical, fluorescence, selectivity assay for P. falciparum G6PD inhibitor project, dose response (AID 504792). The test is classed as functional.

For orientation: IC50 means the concentration needed to halve the response being measured. One may read the AC50 as the midpoint of the concentration-response curve, whichever way the signal moves. For orientation: CC50 means the concentration giving 50% cytotoxicity.

Calls of active or inactive are those of the source.

Chain of Glucose-6-phosphate 1-dehydrogenase (P11413 whole entry): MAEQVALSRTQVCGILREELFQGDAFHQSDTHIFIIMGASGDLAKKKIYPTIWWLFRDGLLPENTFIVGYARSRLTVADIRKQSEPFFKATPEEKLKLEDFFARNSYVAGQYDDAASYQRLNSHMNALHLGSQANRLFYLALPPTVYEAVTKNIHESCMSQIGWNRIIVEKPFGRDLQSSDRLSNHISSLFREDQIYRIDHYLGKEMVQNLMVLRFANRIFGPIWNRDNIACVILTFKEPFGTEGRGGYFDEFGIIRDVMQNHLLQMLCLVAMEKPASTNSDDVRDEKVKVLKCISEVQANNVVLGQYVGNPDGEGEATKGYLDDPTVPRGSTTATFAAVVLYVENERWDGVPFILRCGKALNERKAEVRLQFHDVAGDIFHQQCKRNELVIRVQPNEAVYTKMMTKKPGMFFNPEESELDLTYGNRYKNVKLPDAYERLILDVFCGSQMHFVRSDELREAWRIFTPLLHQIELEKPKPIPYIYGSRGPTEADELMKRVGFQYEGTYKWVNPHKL
Chain of Cystic fibrosis transmembrane conductance regulator/Golgi-associated PDZ and coiled-coil motif-containing protein (P13569 whole entry, other chains not shown): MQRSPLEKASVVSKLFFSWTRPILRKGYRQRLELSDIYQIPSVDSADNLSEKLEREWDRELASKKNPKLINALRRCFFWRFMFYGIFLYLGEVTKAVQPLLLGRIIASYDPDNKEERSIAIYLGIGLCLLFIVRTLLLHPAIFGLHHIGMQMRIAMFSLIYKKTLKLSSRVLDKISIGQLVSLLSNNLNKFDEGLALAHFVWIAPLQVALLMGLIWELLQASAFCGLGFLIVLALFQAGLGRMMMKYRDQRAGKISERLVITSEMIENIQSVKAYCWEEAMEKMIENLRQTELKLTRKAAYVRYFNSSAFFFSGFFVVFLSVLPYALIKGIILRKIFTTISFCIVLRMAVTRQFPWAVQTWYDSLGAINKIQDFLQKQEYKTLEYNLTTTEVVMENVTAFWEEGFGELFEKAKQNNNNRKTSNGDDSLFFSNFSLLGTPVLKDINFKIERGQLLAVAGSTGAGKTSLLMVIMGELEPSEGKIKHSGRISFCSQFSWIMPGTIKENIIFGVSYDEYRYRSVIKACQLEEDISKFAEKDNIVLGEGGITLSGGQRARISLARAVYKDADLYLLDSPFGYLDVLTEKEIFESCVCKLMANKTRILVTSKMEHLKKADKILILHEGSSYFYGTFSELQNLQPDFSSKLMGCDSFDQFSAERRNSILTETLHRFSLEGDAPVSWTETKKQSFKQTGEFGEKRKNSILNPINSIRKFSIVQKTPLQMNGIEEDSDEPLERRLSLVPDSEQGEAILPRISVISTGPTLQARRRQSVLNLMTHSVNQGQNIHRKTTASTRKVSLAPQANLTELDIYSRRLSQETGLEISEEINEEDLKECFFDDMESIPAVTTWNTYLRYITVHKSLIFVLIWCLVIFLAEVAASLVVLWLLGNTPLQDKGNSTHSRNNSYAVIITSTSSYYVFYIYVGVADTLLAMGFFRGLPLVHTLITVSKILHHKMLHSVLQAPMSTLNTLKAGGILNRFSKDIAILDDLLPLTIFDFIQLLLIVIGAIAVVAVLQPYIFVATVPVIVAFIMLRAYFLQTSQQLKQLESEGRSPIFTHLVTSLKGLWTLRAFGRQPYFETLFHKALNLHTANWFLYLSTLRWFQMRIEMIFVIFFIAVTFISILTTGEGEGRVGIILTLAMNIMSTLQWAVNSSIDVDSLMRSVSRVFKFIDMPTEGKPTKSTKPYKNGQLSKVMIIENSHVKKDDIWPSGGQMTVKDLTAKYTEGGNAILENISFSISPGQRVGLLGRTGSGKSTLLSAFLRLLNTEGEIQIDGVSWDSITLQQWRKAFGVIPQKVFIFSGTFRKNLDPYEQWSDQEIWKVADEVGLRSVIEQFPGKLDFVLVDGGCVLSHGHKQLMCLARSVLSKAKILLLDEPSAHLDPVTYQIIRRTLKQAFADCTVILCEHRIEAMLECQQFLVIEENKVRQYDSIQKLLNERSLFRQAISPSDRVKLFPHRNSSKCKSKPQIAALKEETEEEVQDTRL

Consider `Cc1nn(-c2ccccc2)c(Cl)c1CN(C(=O)CCl)c1ccc(Cl)cc1`, for which, in test [1], the EC50 is 4.11 µM (active). Besides, in test [2], the IC50 is > 64.6 µM (inactive).
Consider `Oc1ccccc1/C=C/c1noc(-c2ccccc2O)n1`, for which the IC50 (in the test with HEK293; in test [4]) was > 67.5 µM (inactive) in each case. The EC50 in test [3] and in test [5] was > 67.6 µM (inactive) in each case.
Regarding `O=C(O)CSc1cc(NS(=O)(=O)c2ccc(Cl)cc2)c2ccccc2c1O`, the AC50 in test [6] was 30 µM (active). Also, in the test with Vero, the half-maximal cytotoxic concentration (CC50) was 33.2 µM (active). The IC50 in test [7] was 29.9 µM (inactive).
